Source: EP1202975B1, “SUBSTITUTED POLYCYCLIC ARYL AND HETEROARYL PYRAZINONES USEFUL FOR SELECTIVE INHIBITION OF THE COAGULATION CASCADE” (Pharmacia Corporation, priority 1999, dated 2000)
Where two headings read alike, the source gives them in different places.

Tests used:
[1] = target: T1, TF-VIIa (Homo sapiens, UniProt P08709); assay: TF-VIIa Assay; assay type: biochemical
T1 construct: 2nM recombinant human factor VIIa; purchased American Diagnostica, Greenwich CT; host or cells: soluble TF made in house in E. coli
T1 sequence (P08709 213-466 limits assumed): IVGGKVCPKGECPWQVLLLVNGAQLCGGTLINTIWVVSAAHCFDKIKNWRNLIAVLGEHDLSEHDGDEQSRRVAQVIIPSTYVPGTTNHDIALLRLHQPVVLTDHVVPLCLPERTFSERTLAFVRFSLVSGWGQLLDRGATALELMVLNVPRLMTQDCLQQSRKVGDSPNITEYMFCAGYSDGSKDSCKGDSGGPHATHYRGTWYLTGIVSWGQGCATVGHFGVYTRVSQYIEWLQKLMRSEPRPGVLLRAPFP
T1 sequence (P08709 61-212 limits assumed): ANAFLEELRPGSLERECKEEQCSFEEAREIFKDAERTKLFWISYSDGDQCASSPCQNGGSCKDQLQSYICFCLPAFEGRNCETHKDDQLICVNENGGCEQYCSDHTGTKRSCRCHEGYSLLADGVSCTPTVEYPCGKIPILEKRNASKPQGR
T1 sequence (P13726 33-251 partner limits assumed): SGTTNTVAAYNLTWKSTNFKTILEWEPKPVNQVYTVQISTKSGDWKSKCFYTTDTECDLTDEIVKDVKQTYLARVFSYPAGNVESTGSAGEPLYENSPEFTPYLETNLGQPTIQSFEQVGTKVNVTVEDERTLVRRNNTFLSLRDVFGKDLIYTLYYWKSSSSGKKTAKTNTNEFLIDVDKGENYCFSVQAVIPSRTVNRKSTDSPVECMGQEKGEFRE

[2] = target: Human factor Xa (Homo sapiens, UniProt P00742)
Sequence of Human factor Xa (P00742 235-488 limits assumed): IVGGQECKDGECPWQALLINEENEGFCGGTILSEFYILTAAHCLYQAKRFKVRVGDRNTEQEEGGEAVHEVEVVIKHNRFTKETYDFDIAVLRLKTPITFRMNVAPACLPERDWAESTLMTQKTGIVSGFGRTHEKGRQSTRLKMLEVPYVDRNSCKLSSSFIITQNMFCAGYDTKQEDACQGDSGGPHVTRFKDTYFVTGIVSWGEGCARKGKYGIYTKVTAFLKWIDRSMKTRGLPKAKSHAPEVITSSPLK
Sequence of Human factor Xa (P00742 41-179 limits assumed): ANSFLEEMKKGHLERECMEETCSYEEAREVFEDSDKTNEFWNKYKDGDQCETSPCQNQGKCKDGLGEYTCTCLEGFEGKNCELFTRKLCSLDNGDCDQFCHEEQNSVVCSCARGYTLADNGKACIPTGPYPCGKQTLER

[3] = cells given as a plain number (IC50); read-out: IC50 or % Inhibition TF-VIIa (30 µM)
[4] = read-out: IC50 or % Inhibition TF-VIIa (30 µM); cells given as a plain number (IC50)

SMILES	IC50 [1, 3] [µM]	IC50 or % Inhibition Factor Xa (30 µM) [2] [%]	IC50 [1, 4] [µM]	IC50 or % Inhibition TF-VIIa (30 µM) [1] [%]
N=C(N)c1ccc(CNC(=O)Cn2c(-c3ccccc3)c(Cl)nc(NCc3ccccc3)c2=O)cc1 [1471-9]	0.77	29	–	–
N=C(N)c1ccc(CNC(=O)Cn2c(-c3ccccc3)c(Cl)nc(NCCc3ccc(Cl)cc3)c2=O)cc1 [1471-10]	0.6	45	–	–
N=C(N)c1ccc(CNC(=O)Cn2c(-c3ccccc3)c(Cl)nc(NCc3ccncc3)c2=O)cc1 [1471-11]	–	9	1.69	–
N=C(N)c1ccc(CNC(=O)Cn2c(-c3ccccc3)c(Cl)nc(NCCN3CCOCC3)c2=O)cc1 [1471-12]	7.97	9	–	–
N=C(N)c1ccc(CNC(=O)Cn2c(-c3ccccc3)c(Cl)nc(NCCc3cccnc3)c2=O)cc1 [1471-16]	–	23	0.82	–
N=C(N)c1ccc(CNC(=O)Cn2c(-c3ccc(Cl)cc3)c(Cl)nc(NCCc3ccc(Cl)cc3)c2=O)cc1 [1471-18]	–	26	11.2	–
N=C(N)c1ccc(CNC(=O)Cn2c(-c3ccc(Cl)cc3)c(Cl)nc(NCc3ccncc3)c2=O)cc1 [1471-19]	–	26	–	33
N=C(N)c1ccc(CNC(=O)Cn2c(-c3ccc(Cl)cc3)c(Cl)nc(NCCN3CCOCC3)c2=O)cc1 [1471-20]	–	34	–	42
N=C(N)c1ccc(CNC(=O)Cn2c(-c3ccc(Cl)cc3)c(Cl)nc(NCCc3cccc(Cl)c3)c2=O)cc1 [1471-22]	–	28	14.6	–
N=C(N)c1ccc(CNC(=O)Cn2c(-c3ccc(Cl)cc3)c(Cl)nc(NCCc3ccccc3)c2=O)cc1 [1471-23]	8.88	36	–	–
N=C(N)c1ccc(CNC(=O)Cn2c(-c3cccc(Cl)c3)c(Cl)nc(NCc3ccncc3)c2=O)cc1 [1471-27]	–	16	4.19	–
N=C(N)c1ccc(CNC(=O)Cn2c(-c3cccc(Cl)c3)c(Cl)nc(NCCN3CCOCC3)c2=O)cc1 [1471-28]	–	8	7.22	–
N=C(N)c1ccc(CNC(=O)Cn2c(-c3cccc(Cl)c3)c(Cl)nc(NCCc3ccncc3)c2=O)cc1 [1471-29]	–	21	2.18	–
N=C(N)c1ccc(CNC(=O)Cn2c(-c3cccc(Cl)c3)c(Cl)nc(NCCc3cccc(Cl)c3)c2=O)cc1 [1471-30]	–	41	0.83	–
N=C(N)c1ccc(CNC(=O)Cn2c(-c3cccc(Cl)c3)c(Cl)nc(NCCc3ccccc3)c2=O)cc1 [1471-31]	1.98	17	–	–
N=C(N)c1ccc(CNC(=O)Cn2c(-c3cccc(Cl)c3)c(Cl)nc(NCCc3cccnc3)c2=O)cc1 [1471-32]	–	25	1.19	–
COc1ccc(-c2c(Cl)nc(NCc3ccccc3)c(=O)n2CC(=O)NCc2ccc(C(=N)N)cc2)cc1 [1471-33]	–	22	–	31
COc1ccc(-c2c(Cl)nc(NCCc3ccc(Cl)cc3)c(=O)n2CC(=O)NCc2ccc(C(=N)N)cc2)cc1 [1471-34]	–	24	17.5	–
COc1ccc(-c2c(Cl)nc(NCc3ccncc3)c(=O)n2CC(=O)NCc2ccc(C(=N)N)cc2)cc1 [1471-35]	–	22	–	37
COc1ccc(-c2c(Cl)nc(NCCN3CCOCC3)c(=O)n2CC(=O)NCc2ccc(C(=N)N)cc2)cc1 [1471-36]	–	6	–	11
COc1ccc(-c2c(Cl)nc(NCCc3ccncc3)c(=O)n2CC(=O)NCc2ccc(C(=N)N)cc2)cc1 [1471-37]	–	7	–	39
COc1ccc(-c2c(Cl)nc(NCCc3cccnc3)c(=O)n2CC(=O)NCc2ccc(C(=N)N)cc2)cc1 [1471-40]	–	11	–	40
N=C(N)c1ccc(CNC(=O)Cn2c(-c3ccc4c(c3)OCO4)c(Cl)nc(NCc3ccccc3)c2=O)cc1 [1471-41]	–	34	18.3	–
N=C(N)c1ccc(CNC(=O)Cn2c(-c3ccc4c(c3)OCO4)c(Cl)nc(NCCc3ccc(Cl)cc3)c2=O)cc1 [1471-42]	–	15	10.5	–

SMILES	IC50 [1, 3] [µM]	IC50 or % Inhibition Factor Xa (30 µM) [2] [%]	IC50 [1, 4] [µM]	IC50 or % Inhibition TF-VIIa (30 µM) [1] [%]
N=C(N)c1ccc(CNC(=O)Cn2c(-c3ccc4c(c3)OCO4)c(Cl)nc(NCc3ccncc3)c2=O)cc1 [1471-43]	–	18	25.3	–
N=C(N)c1ccc(CNC(=O)Cn2c(-c3ccc4c(c3)OCO4)c(Cl)nc(NCCN3CCOCC3)c2=O)cc1 [1471-44]	–	13	–	34
N=C(N)c1ccc(CNC(=O)Cn2c(-c3ccc4c(c3)OCO4)c(Cl)nc(NCCc3ccncc3)c2=O)cc1 [1471-45]	–	24	13.2	–
N=C(N)c1ccc(CNC(=O)Cn2c(-c3ccc4c(c3)OCO4)c(Cl)nc(NCCc3cccc(Cl)c3)c2=O)cc1 [1471-46]	–	21	13	–
N=C(N)c1ccc(CNC(=O)Cn2c(-c3ccc4c(c3)OCO4)c(Cl)nc(NCCc3ccccc3)c2=O)cc1 [1471-47]	–	22	12.6	–
N=C(N)c1ccc(CNC(=O)Cn2c(-c3ccc4c(c3)OCO4)c(Cl)nc(NCCc3cccnc3)c2=O)cc1 [1471-48]	–	17	15.7	–
CCc1c(Cl)nc(NCCc2ccc(Cl)cc2)c(=O)n1CC(=O)NCc1ccc(C(=N)N)cc1 [1471-58]	–	0	12.4	–
CCc1c(Cl)nc(NCc2ccncc2)c(=O)n1CC(=O)NCc1ccc(C(=N)N)cc1 [1471-59]	–	0	7.52	–
CCc1c(Cl)nc(NCCN2CCOCC2)c(=O)n1CC(=O)NCc1ccc(C(=N)N)cc1 [1471-60]	–	0	13	–
CCc1c(Cl)nc(NCCc2ccncc2)c(=O)n1CC(=O)NCc1ccc(C(=N)N)cc1 [1471-61]	–	0	5	–
CCc1c(Cl)nc(NCCc2cccc(Cl)c2)c(=O)n1CC(=O)NCc1ccc(C(=N)N)cc1 [1471-62]	–	0	–	4
CCc1c(Cl)nc(NCCc2ccccc2)c(=O)n1CC(=O)NCc1ccc(C(=N)N)cc1 [1471-63]	3.45	2	–	–
CCc1c(Cl)nc(NCCc2cccnc2)c(=O)n1CC(=O)NCc1ccc(C(=N)N)cc1 [1471-64]	–	2	3.02	–
N=C(N)c1ccc(CNC(=O)Cn2c(-c3ccc(-c4ccccc4)cc3)c(Cl)nc(NCc3ccncc3)c2=O)cc1 [1471-67]	–	16	–	12
N=C(N)c1ccc(CNC(=O)Cn2c(-c3ccc(-c4ccccc4)cc3)c(Cl)nc(NCCc3cccc(Cl)c3)c2=O)cc1 [1471-70]	–	12	–	10
N=C(N)c1ccc(CNC(=O)Cn2c(-c3ccc(-c4ccccc4)cc3)c(Cl)nc(NCCc3ccccc3)c2=O)cc1 [1471-71]	–	0	–	6
N=C(N)c1ccc(CNC(=O)Cn2c(-c3ccc(-c4ccccc4)cc3)c(Cl)nc(NCCc3cccnc3)c2=O)cc1 [1471-72]	–	22	–	15
N=C(N)c1ccc(CNC(=O)Cn2c(-c3ccccc3)c(Cl)nc(NC3CCc4ccccc43)c2=O)cc1 (stereo not shown) [1507-02]	–	9	9.4	–
N=C(N)c1ccc(CNC(=O)Cn2c(-c3ccccc3)c(Cl)nc(NCc3ccccc3Cl)c2=O)cc1 [1507-03]	–	21	3.6	–
N=C(N)c1ccc(CNC(=O)Cn2c(-c3ccccc3)c(Cl)nc(NCCCn3ccnc3)c2=O)cc1 [1507-05]	–	10	4.7	–
N=C(N)c1ccc(CNC(=O)Cn2c(-c3ccccc3)c(Cl)nc(NC3Cc4ccccc4C3)c2=O)cc1 [1507-08]	–	1	–	7
N=C(N)c1ccc(CNC(=O)Cn2c(-c3ccccc3)c(Cl)nc(NCC(c3ccccc3)c3ccccc3)c2=O)cc1 [1507-09]	–	13	22.6	–
N=C(N)c1ccc(CNC(=O)Cn2c(-c3ccccc3)c(Cl)nc(NC3CCCc4ccccc43)c2=O)cc1 (stereo not shown) [1507-16]	–	18	5.8	–
